Experiment [1] relates to mouse macrophage RAW264.7 cells. Kind of experiment: Cell number after 5 hours incubation with or without LPS. The experiment is classed as cell-based. To be noted: DHMBA 0.1-1000 μM. Here is the method:
RAW264.7 cells (1×10^5/ml/well) were cultured in a DMEM culture medium containing 10% FBS, 1% P/S, and 1% fungizone. Cells were treated with a vehicle (1% ethanol; DHMBA 0 μM as final concentration) or DHMBA (0.1, 1, 10, 100, or 1000 μM) and incubated for 5 hours (FIG. 6A).
Cells (1×10^5/ml per well) were cultured for 3 days in a DMEM culture medium containing 10% FBS, 1% P/S, and 1% fungizone in the presence of LPS (100 ng/ml in all cultures). Cells were treated with a vehicle (1% ethanol; DHMBA 0 μM as final concentration) or DHMBA (0.1, 1, 10, 100, or 1000 μM) and incubated for 5 hours (FIG. 6B).
After the culture, the number of cells attached to the dish was counted. Data are presented as the mean±SD from a total of 8 wells of two plates using different cell preparations. […] No significant changes were observed by […] LPS treatment compared to the controls (gray bars). Statistical analysis was performed using 1-way ANOVA with Tukey-Kramer post-test.
RAW264.7 cells (1×10^5/ml per well) were cultured in a DMEM culture medium containing 10% FBS and 1% P/S using a 24-well plate for 3 days until they reached subconfluence. […] The concentrations of TNF-α, IL-6, IL-⊕, and PGE2 in the culture medium were measured using ELISA kits. […] The amount of each cytokine produced was expressed as pictograms (pg) secreted into the culture medium (ml).

The test system of experiment [2] is RAW264.7 cells stimulated with LPS. As to the kind of experiment: Measurement of osteoclast formation (TRACP-positive MNCs). The experiment is classed as cell-based, mouse. Here is the method:
Cells (1×10^5 cells/1 ml per well in a 24-well plate) were cultured for 3 days in DMEM containing 10% FBS, 1% P/S, and 1% fungizone in the control group (1% ethanol as final concentration) and in the DHMBA-treated group (0.1, 1, 10, or 100 μM) with or without LPS (100 ng/ml). The old culture medium was replaced with fresh conditioned culture medium (0.5 ml) containing LPS and/or DHMBA, and the cells were cultured for another 3 days (FIG. 9A). Cells (1×10^5 cells/1 ml per well in a 24-well plate) were cultured for 3 days in the above DMEM culture medium with LPS (100 ng/ml) but without DHMBA. […] TRACP-positive multinucleated cells (MNCs) (with 3 or more nuclei) were counted as osteoclast-like cells under a microscope (40× magnification). […]
RAW264.7 cells (1×10^5 cells/1 ml per well in a 24-well plate) were cultured for 3 days in a DMEM culture medium containing 10% FBS, 1% P/S, and 1% fungizone in the control group (1% ethanol in the culture medium as final concentration) and the LPS-treated group (100 ng/ml in the culture medium) with or without DHMBA (0.1, 1, 10, or 100 μM). […] TRACP-positive multinucleated cells (MNCs) having three or more nuclei were counted as osteoclast-like cells under a microscope (40× magnification) (Olympus MTV-3; Olympus Corp., Tokyo, Japan). […]

`COc1c(O)cc(CO)cc1O` [DHMBA, 3,5-dihydroxy-4-methoxybenzyl alcohol]: the “number of RAW264.7 cells” value in experiment [1] (LPS 100 ng/ml) and in experiment [1] (absence of LPS) was “remained unchanged” each time. For the same molecule, in experiment [2] (3 days LPS 100 ng/ml alone, then 3 days LPS plus DHMBA 0.1, 1, 10 or 100 μM), the “LPS-enhanced osteoclast formation, late stage” value was “suppressed”. The LPS-enhanced osteoclast formation result in experiment [2] (LPS 100 ng/ml and DHMBA 0.1, 1, 10 or 100 μM together for 6 days) was “suppressed”.
